In patent EP4729061A1, “USE OF AKT INHIBITOR IN PREPARATION OF DRUG FOR PREVENTING OR TREATING BREAST CANCER” (Nanjing Chia Tai Tianqing Pharmaceutical Co., Ltd., priority 2023, dated 2024):

Legend:
MCF-7 Cells = assay: Cell proliferation inhibition, CTG (CelltiterGlo) method, alone or combined with fulvestrant; assay type: cell-based; settings: compound alone; for IC50: Homo sapiens, MCF7, 168 h, 7 days; for Maximum Inhibition Rate on MCF-7 Cells: maximum value fitted by GraphPad Prism 8
Protocol: a). BT-474 cells were cultured in Hybri-Care medium supplemented with 1% antibiotics and 10% FBS, and incubated in the condition of 37°C with 5% CO2; b). MCF-7 cells were cultured in EMEM medium supplemented with 1% antibiotics, 0.01 mg/mL insulin, and 10% FBS, and incubated in the condition of 37°C with 5% CO2; c). ZR-75-1 cells were cultured in RPMI-1640 medium supplemented with 1% antibiotics and 10% FBS, and incubated in the condition of 37°C with 5% CO2; d). T47D cells were cultured in RPMI-1640 medium supplemented with 1% antibiotics, 0.2 U/mL insulin, and 10% FBS, and incubated in the condition of 37°C with 5% CO2; e) CAMA-1 cells were cultured in EMEM medium supplemented with 1% antibiotics and 10% FBS, and incubated in the condition of 37°C with 5% CO2.
a). Cells were routinely cultured until reaching 80%-90% confluence and when the required cell number was reached, they were harvested; b). Resuspended in the corresponding medium, counted, and prepared into a cell suspension with appropriate density; c). The cell suspension was added to a 384-well plate at 40 µL per well. Table 1. Plating densities of different cell lines
d). The cells were cultured overnight in an incubator at 37°C with 5% CO2 .
a). The compound of Formula (A) was serially diluted 3-fold for 10 concentrations starting from a stock solution of 60 mM (using the monofumarate dihydrate of the compound of Formula (A), with the concentration calculated based on the free base of the compound of Formula (A); the compound of Formula (A) or salt thereof was prepared with reference to the preparation method disclosed in WO2022017448A1); b). Fulvestrant was diluted from 10 mM to 2 mM with DMSO, then serially diluted 3-fold for 10 concentrations; c). Fulvestrant was diluted from 2 mM to 0.2 mM with DMSO, then serially diluted 3-fold for 10 concentrations; d). Fulvestrant was diluted from 0.2 mM to 2 µM with DMSO; e). Fulvestrant was diluted from 2 µM to 0.8 µM with DMSO; f). Fulvestrant was diluted from 2 µM to 0.3 µM with DMSO; g) Fulvestrant was diluted from 0.8 µM to 0.08 µM with DMSO; h). The final concentration of DMSO was 0.1%; i). Cells supplemented with DMSO served as control wells for high reading values; j). Cell-free medium served as control wells for low reading values.
24 Hours after MCF-7, T47D, and CAMA-1 cells were plated, the compound was administered alone. For the compound of Formula (A): 20 nL of the compound prepared in step 2.3 a) + 20 nL of DMSO were added. For compound fulvestrant: 20 nL of the compound prepared in step 2.3 c) + 20 nL of DMSO were added.
24 Hours after MCF-7 cells were plated, the compound of Formula (A) was administered in combination with fulvestrant: 20 nL of the compound prepared in step 2.3 a) + 20 nL of the compounds prepared in step 2.3 c), e), and f). […]

[1] = test system: MCF-7 human breast cancer subcutaneous xenograft model; assay: Tumor inhibition in subcutaneous xenograft model; assay type: in vivo, female BALB/c nude mice; settings: the compound of Formula (A) 25 mg/kg p.o. QD, Fulvestrant 5 mg/mouse s.c. QW; for Body weight Post 28 Days of Treatment: mean ± standard error; for Body weight Post 28 Days of Treatment / Tumor Volume 28 Days After Administration: n=12, x 4 weeks; for Tumor Volume 28 Days After Administration: tumor volume at grouping 204 ± 6, P <0.001 vs control; for T/C: relative tumor volume increase ratio; for T/C / TGI: day 28; for TGI: tumor growth inhibition rate
Excerpt: The purpose of this study is to evaluate the therapeutic efficacy of the compound of Formula (A) in combination with fulvestrant in the MCF-7 human breast cancer subcutaneous xenograft model in female BALB/c nude mice.
BALB/c nude mice, 6-8 weeks old, female, weighing 18-20 g, were purchased from Beijing Anikeeper Biotech Co., Ltd.. The feeding environment was SPF-grade, the temperature is (23±3)°C and the humidity is 40-70%.
Solvent for the compound of Formula (A): 1,2-Propanediol (PG) : 50% Solutol HS-15 : 0.5% Hydroxypropyl Methylcellulose (HPMC) = 2 : 1 : 7.
Compound preparation methods
MCF-7 tumor cells were cultured in DMEM medium containing inactivated 15% fetal bovine serum, 100 U/mL penicillin, and 100 µg/mL streptomycin in an incubator at 37°C with 5% CO2. Tumor cells in the logarithmic growth phase were used for in vivo tumor inoculation.
One day before the inoculation of MCF-7 tumor cells, the mice were subcutaneously implanted with an estrogen tablet (0.5 mg, 90-day release period) on the left side. MCF-7 tumor cells resuspended in serum-free DMEM medium were inoculated subcutaneously into the right costal region of the experimental animals at a density of 1.5 × 10^7 cells (0.2 mL + Matrigel), with a total of 72 animals inoculated. When the tumors grew to approximately 204 mm^3, 48 animals with relatively uniform tumor volumes were selected for grouping and administration, divided into 4 groups, and administered according to the dosing schedule. Table 8. Compounds administration schedule
Tumor volume was measured twice a week using a vernier caliper. The long diameter and short diameter of the tumor were measured, and the volume was calculated using the formula: Volume = 0.5×long diameter×short diameter^2.
While measuring the tumor volume, the body weight of the mice was weighed. The relationship between the changes in the mice's body weight and the administration time was recorded. Meanwhile, the survival status and health conditions of the mice were observed, such as their general states including activity and food intake during the administration period.
Tumor Growth Inhibition Rate(TGI,%) = (1−T/C) × 100 [formula]
Statistical analysis of tumor volume between groups was performed using the statistical software SPSS 16.0 and One-Way ANOVA test. A p-value < 0.05 was considered statistically significant.

| Compound | IC50 (MCF-7 Cells) [nM] | Maximum Inhibition Rate on MCF-7 Cells (MCF-7 Cells) [%] | Body weight Post 28 Days of Treatment [1] [g] | Tumor Volume 28 Days After Administration [1] [mm^3] | T/C [1] [%] | TGI [1] [%] |
| --- | --- | --- | --- | --- | --- | --- |
| C[C@]12CC[C@@H]3c4ccc(O)cc4C[C@@H](CCCCCCCCC[S+]([O-])CCCC(F)(F)C(F)(F)F)[C@H]3[C@@H]1CC[C@@H]2O (stereo partly drawn) [Fulvestrant, reference compound] | 0.19 | 54.67 | 25.9 ± 0.3 | 546 ± 54 | 46.9 | 53.1 |
| CC(C)NC[C@@H](C(=O)N1CCN(c2ncnc3c2[C@H](C)CC(=O)N3)[C@H]2C[C@H]21)c1ccc(Cl)cc1 [The compound of Formula (A), (R)-4-((1S,6R)-5-((S)-2-(4-chlorophenyl)-3-(isopropylamino)propanoyl)-2,5-diazabicyclo[4.1.0]heptan-2-yl)-5-methyl-5,8-dihydropyrido[2,3-d]pyrimidin-7(6H)-one] | 759 | 98.92 | 23.8 ± 0.5 | 684 ± 65 | 58.4 | 41.6 |
